19 compounds from US12410160B2 (Gilead Sciences, Inc., priority 2021, dated 2025) can be followed below.

Read-outs that look alike come from different tables or passages of the source.

For one data set, the target named is human OATP1B1 (Homo sapiens (Human), UniProt Q9Y6L6). The data set can be described thus: In Vitro Inhibition Assessment with Human OATP1B1 Transporter. The data set is classed as in vitro ADME. To be noted: HEK293-OATP1B1 cells, probe substrate pravastatin. In short, it runs like this:
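Pravastatin uptake was measured by LC-MS/MS after a 5 min exposure with inhibitor, following a 15 min inhibitor preincubation, in transfected versus mock HEK293 cells. Transport activity was derived as (transfected − mock) with compound over the same difference with solvent. IC50 is the concentration halving maximal activity; final DMSO was 0.4%.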

For another data set, the system named is HepG2 cells. Put plainly: F1P Cell-Based Assay (EC50), 13C6-fructose-1-phosphate in HepG2 cells (cell culture medium or 50% human plasma).
A further data set addresses human KHK-C (Homo sapiens (Human), UniProt P50053). The data set can be described thus: KHK Biochemical Assay (IC50), ADP-Glo, KHK-C. The note with it: average of at least two separate assays. The method, boiled down: (§1)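 ADP-Glo luminescence measured ADP made over a 4 h room-temperature reaction of ATP plus fructose, started after 30 min compound–enzyme pre-incubation. Buffer: 50 mM Hepes pH 7.4, 140 mM KCl, 5 mM MgCl2, 0.01% Triton-X. Enzyme was His-tagged, BL21 (DE3)-expressed, Ni-NTA-purified; compounds in 1:3 DMSO dilution series.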

A further data set deals with human KHK-A (Homo sapiens (Human), UniProt P50053). The data set can be described thus: KHK Biochemical Assay (IC50), ADP-Glo, KHK-A. To be noted: average of at least two separate assays. The method, boiled down:
as §1

For data set [1], the target named is KHK-C expressed in NRK-52E cells (Homo sapiens (Human), UniProt P50053). The data set can be described thus: KHK-C Cell-based Assay (EC50), NRK CTG, fructose-mediated ATP-depletion.
Data set [2] is described as follows: pKa analysis by capillary electrophoresis (pKa PRO Analyzer, co-solvent method). To be noted: co-solvent method (60% to 30% methanol buffers); for 1st pKa: pH range 1.7-11.2; for pKa: methanol/aqueous co-solvent buffers. The data set is classed as physicochemical. As for the experimental part: The 10 mM DMSO stock solutions of test articles (TAs) were diluted 100-fold with either 2 mM HCl or 2 mM NaOH and methanol. The final concentration of methanol was 60%, TA concentration was 100 μM, and DMSO concentration was 1%. The TAs were transferred into 24 consecutive wells of a 96-well plate for analysis using the co-solvent method. […] All data was obtained using a pKa. PRO Analyzer (AATI, Ankey, IA) by performing four consecutive CE runs from 60% to 30% co-solvent buffers. Norfloxacin was used as a daily performance-indicating standard. The pKa values were predicted by using pKa. Estimator® software (AATI, Ankey, IA) by relating molecular weight of the TA to its mobility.

[3] abbreviates: Homo sapiens, HepG2, HepG2 cells, 50% human plasma, read-out: F1P 50% HP EC50.
[4] abbreviates: Homo sapiens, HepG2, read-out: F1P 10% FBS EC50, HepG2 cells, cell culture medium (10% FBS).
The mark [5] stands for this setting: pH range 1.7-11.2, read-out: 1st pKa.
[6] abbreviates: pH range 1.7-11.2, read-out: 2nd pKa.

Chain of human OATP1B1 (Q9Y6L6 whole entry): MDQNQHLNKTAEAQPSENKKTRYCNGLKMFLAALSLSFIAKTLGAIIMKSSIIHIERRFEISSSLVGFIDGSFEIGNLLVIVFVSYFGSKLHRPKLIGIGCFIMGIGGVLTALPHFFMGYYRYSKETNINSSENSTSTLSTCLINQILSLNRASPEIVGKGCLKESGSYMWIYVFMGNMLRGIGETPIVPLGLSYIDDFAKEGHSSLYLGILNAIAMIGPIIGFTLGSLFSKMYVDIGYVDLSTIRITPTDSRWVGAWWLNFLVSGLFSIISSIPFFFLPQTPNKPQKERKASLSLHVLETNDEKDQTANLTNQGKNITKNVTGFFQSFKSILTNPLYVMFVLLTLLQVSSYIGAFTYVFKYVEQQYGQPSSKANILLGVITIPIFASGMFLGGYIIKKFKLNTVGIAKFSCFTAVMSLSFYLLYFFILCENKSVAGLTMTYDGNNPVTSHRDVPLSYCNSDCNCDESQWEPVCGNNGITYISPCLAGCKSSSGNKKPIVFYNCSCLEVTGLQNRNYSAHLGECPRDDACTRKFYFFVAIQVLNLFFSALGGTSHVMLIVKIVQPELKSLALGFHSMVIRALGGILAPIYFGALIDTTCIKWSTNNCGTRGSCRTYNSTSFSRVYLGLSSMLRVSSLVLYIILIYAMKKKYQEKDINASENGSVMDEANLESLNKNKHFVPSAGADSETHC
Chain of KHK-C expressed in NRK-52E cells (P50053 whole entry): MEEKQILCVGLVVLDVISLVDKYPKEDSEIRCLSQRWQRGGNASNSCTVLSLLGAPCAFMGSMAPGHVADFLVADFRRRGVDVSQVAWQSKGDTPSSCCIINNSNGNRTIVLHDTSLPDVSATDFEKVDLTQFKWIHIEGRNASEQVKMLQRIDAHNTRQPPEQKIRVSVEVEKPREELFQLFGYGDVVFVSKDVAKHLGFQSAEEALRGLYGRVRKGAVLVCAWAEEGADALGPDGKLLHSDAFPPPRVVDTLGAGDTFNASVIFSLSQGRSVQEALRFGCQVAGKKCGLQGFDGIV
Chain of human KHK-C (P50053 whole entry): as above
Chain of human KHK-A (P50053 other isoform, or with tags, fused parts or gaps): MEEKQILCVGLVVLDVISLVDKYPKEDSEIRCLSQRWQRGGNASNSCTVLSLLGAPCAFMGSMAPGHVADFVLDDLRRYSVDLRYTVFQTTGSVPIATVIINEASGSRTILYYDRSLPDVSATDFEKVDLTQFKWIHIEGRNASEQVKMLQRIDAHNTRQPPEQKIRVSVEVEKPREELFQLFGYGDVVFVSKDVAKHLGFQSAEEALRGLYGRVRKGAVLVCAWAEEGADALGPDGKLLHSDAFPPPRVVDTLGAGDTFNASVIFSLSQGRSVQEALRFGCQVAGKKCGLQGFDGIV

`C[C@H]1CCN1c1nc2c(c(-c3cccc([C@H]4C[C@@H]4C(=O)O)c3)n1)CCC2` (single isomer, unassigned) [Example 89]: the IC50 at human OATP1B1 stood at 160 nM; at human KHK-C (ADP-Glo) it was 3.3 nM; at human KHK-A (ADP-Glo) it was 6 nM. Moreover, the EC50 in the data set with HepG2 cells (setting [3]) is 311 nM; with HepG2 cells (setting [4]) it was 35.7 nM; in data set [1] it was 37 nM.

As for `C[C@H]1[C@H](O)CN1c1nc(-c2ccc3c(c2)CC[C@@]32COC(=O)N2)c2c(n1)C(F)(F)CC2` (single isomer, unassigned) [Example 476], the IC50 against human OATP1B1 is 5980 nM; on human KHK-C it was 0.2 nM; against human KHK-A, 10.9 nM. The EC50 in the data set on HepG2 cells (setting [3]) worked out at 37.5 nM; with HepG2 cells (setting [4]), 23.5 nM; in data set [1], 9.5 nM.

Regarding `C[C@H]1[C@H](O)CN1c1nc(-c2ccc3c(c2)OC[C@@]32COC(=O)N2)c2c(n1)C(F)(F)CC2` (single isomer, unassigned) [Example 483], the IC50 was 17400 nM against human OATP1B1, 0.2 nM on human KHK-C and 4.6 nM against human KHK-A. Also, the EC50 was determined as 18.4 nM with HepG2 cells (setting [3]), 5.3 nM with HepG2 cells (setting [4]) and 5.4 nM in data set [1].

In the case of `C[C@H]1[C@H](O)CN1c1nc(-c2ccc3c(c2)OC[C@@]32COCC(=O)N2)c2c(n1)C(F)(F)CC2` (single isomer, unassigned) [Example 499], the IC50 was found to be 24300 nM against human OATP1B1, 0.2 nM against human KHK-C and 2.4 nM on human KHK-A. Further, the EC50 with HepG2 cells (HepG2 cells, 50% human plasma, read-out: F1P 50% HP EC50) is 6.4 nM; in the data set with HepG2 cells (read-out: F1P 10% FBS EC50, HepG2 cells, cell culture medium (10% FBS)), 3 nM; in data set [1] (read-out: NRK CTG EC50, NRK-52E cells, Cell-Titer Glo, 25 mM fructose) it was 1.6 nM.

As to `C[C@H]1[C@H](O)CN1c1nc(-c2ccc([C@@]3(N)CCS(=O)(=O)C3)cc2)c2c(n1)C(F)(F)CC2` (single isomer, unassigned) [Example 794], the IC50 against human KHK-C (ADP-Glo) is 4.4 nM. In data set [2], the “1st pKa” value worked out at 4.9.

Consider `C[C@H]1CCN1c1nc2c(c(-c3cnsc3)n1)CCC2` [Example 14, (S)-4-(2-(2-methylazetidin-1-yl)-6,7-dihydro-5H-cyclopenta[d]pyrimidin-4-yl)isothiazole], for which the IC50 on human KHK-C (ADP-Glo) amounted to 104 nM; against human KHK-A (ADP-Glo), 121 nM. In addition, in data set [2] (setting [5]), the pKa is 4.28.

Consider `C[C@H]1CCN1c1nc2c(c(-c3cccnc3)n1)CCC2` [Example 15, (S)-2-(2-methylazetidin-1-yl)-4-(pyridin-3-yl)-6,7-dihydro-5H-cyclopenta[d]pyrimidine], for which the figures for the IC50 on human KHK-C (ADP-Glo) and against human KHK-A (ADP-Glo) were 165 nM and 148 nM, respectively. The figures for the pKa in data set [2] (setting [5]) and in data set [2] (setting [6]) were 3.57 and 5.44, respectively.

As to `C[C@H]1CCN1c1nc2c(c(-c3cncnc3)n1)CCC2` [Example 16, (S)-2-(2-methylazetidin-1-yl)-4-(pyrimidin-5-yl)-6,7-dihydro-5H-cyclopenta[d]pyrimidine], the IC50 on human KHK-C (ADP-Glo) stood at 667 nM; at human KHK-A (ADP-Glo), 783 nM. In addition, the pKa in data set [2] (setting [5]) is 3.77.

Turning to `C[C@H]1CCN1c1nc2c(c(-c3ccn(C)n3)n1)CCC2` [Example 17, (S)-4-(1-methyl-1H-pyrazol-3-yl)-2-(2-methylazetidin-1-yl)-6,7-dihydro-5H-cyclopenta[d]pyrimidine], the IC50 against human KHK-C (ADP-Glo) stood at 193 nM; at human KHK-A (ADP-Glo) it was 252 nM. Besides, the pKa in data set [2] (setting [5]) came to 4.69.

Regarding `C[C@H]1CCN1c1nc2c(c(-c3cn[nH]c3)n1)CCC2` [Example 19, (S)-2-(2-methylazetidin-1-yl)-4-(1H-pyrazol-4-yl)-6,7-dihydro-5H-cyclopenta[d]pyrimidine], the IC50 at human KHK-C (ADP-Glo) was determined as 33.2 nM; against human KHK-A (ADP-Glo) it was 38.6 nM. Besides, the pKa in data set [2] (setting [5]) was 4.88.

As for `C[C@H]1CCN1c1nc2c(c(-c3ccnn3C)n1)CCC2` [Example 20, (S)-4-(1-methyl-1H-pyrazol-5-yl)-2-(2-methylazetidin-1-yl)-6,7-dihydro-5H-cyclopenta[d]pyrimidine], the IC50 came out at 156 nM against human KHK-C (ADP-Glo) and 146 nM against human KHK-A (ADP-Glo). The pKa in data set [2] (setting [5]) is 4.

In the case of `C[C@H]1CCN1c1nc2c(c(-c3ccccn3)n1)CCC2` [Example 21, (S)-2-(2-methylazetidin-1-yl)-4-(pyridin-2-yl)-6,7-dihydro-5H-cyclopenta[d]pyrimidine], the IC50 worked out at 292 nM against human KHK-C (ADP-Glo) and 367 nM against human KHK-A (ADP-Glo). The pKa in data set [2] (setting [5]) was determined as 1.73; in data set [2] (setting [6]), 4.48.

On to `C[C@H]1CCN1c1nc2c(c(-c3ccc(N4CCNCC4)cc3)n1)CCC2` [Example 50, (S)-2-(2-methylazetidin-1-yl)-4-(4-(piperazin-1-yl)phenyl)-6,7-dihydro-5H-cyclopenta[d]pyrimidine], for which the values for the IC50 against human KHK-C (ADP-Glo) and against human KHK-A (ADP-Glo) were 27.5 nM and 18.2 nM, respectively. The pKa in data set [2] (setting [5]) came out at 4.8; in data set [2] (setting [6]), 8.71.

As for `C[C@H]1[C@H](O)CN1c1nc(-c2ccc(C(N)=O)cc2)c2c(n1)C(F)(F)CC2` [Example 129, 4-(7,7-difluoro-2-((2S,3R)-3-hydroxy-2-methylazetidin-1-yl)-6,7-dihydro-5H-cyclopenta[d]pyrimidin-4-yl)benzamide], the IC50 came out at 13200 nM against human OATP1B1, 6.4 nM against human KHK-C (ADP-Glo) and 14 nM against human KHK-A (ADP-Glo). In addition, the EC50 with HepG2 cells (setting [3]) is 36.7 nM; with HepG2 cells (setting [4]) it was 18.8 nM; in data set [1], 80.8 nM.

As for `C[C@H]1[C@H](O)CN1c1nc2c(c(-c3ccc(C(N)=O)cc3)n1)CCC2` [Example 197, 4-[2-[(2S,3R)-3-hydroxy-2-methyl-azetidin-1-yl]-6,7-dihydro-5H-cyclopenta[d]pyrimidin-4-yl]benzamide], the IC50 came out at 5920 nM on human OATP1B1, 51.6 nM against human KHK-C (ADP-Glo) and 65.5 nM on human KHK-A (ADP-Glo). The EC50 came out at 191 nM with HepG2 cells (setting [3]), 120 nM in the data set on HepG2 cells (setting [4]) and 379 nM in data set [1].

As to `C[C@H]1[C@H](O)CN1c1nc(-c2ccc3c(=O)[nH]ccc3c2)c2c(n1)C(F)(F)CC2` [Example 318, 6-(7,7-difluoro-2-((2S,3R)-3-hydroxy-2-methylazetidin-1-yl)-6,7-dihydro-5H-cyclopenta[d]pyrimidin-4-yl)isoquinolin-1(2H)-one], the IC50 at human OATP1B1 was 350 nM; against human KHK-C (ADP-Glo) it was 1.6 nM; on human KHK-A (ADP-Glo) it was 6 nM. The EC50 in the data set with HepG2 cells (setting [3]) was 16.1 nM; in the data set with HepG2 cells (setting [4]) it was 9.3 nM; in data set [1] it was 9.1 nM.

Take `C[C@H]1[C@H](O)CN1c1nc(-c2cccc(CNS(C)(=O)=O)c2)c2c(n1)C(F)(F)CC2` [Example 324, N-(3-(7,7-difluoro-2-((2S,3R)-3-hydroxy-2-methylazetidin-1-yl)-6,7-dihydro-5H-cyclopenta[d]pyrimidin-4-yl)benzyl)methanesulfonamide]: the IC50 on human OATP1B1 stood at 5800 nM; against human KHK-C (ADP-Glo), 8.3 nM; at human KHK-A (ADP-Glo), 6.6 nM. Besides, the results for the EC50 (in the data set with HepG2 cells (setting [3]); in the data set with HepG2 cells (setting [4]); in data set [1]) were 59.9 nM, 19 nM and 72.3 nM, respectively.

Regarding `C[C@H]1[C@H](O)CN1c1nc(-c2cc(F)c3c(c2)OCCNC3=O)c2c(n1)C(F)(F)CC2` [Example 746, 8-[7,7-difluoro-2-[(2S,3R)-3-hydroxy-2-methyl-azetidin-1-yl]-5,6-dihydrocyclopenta[d]pyrimidin-4-yl]-6-fluoro-3,4-dihydro-2H-1,4-benzoxazepin-5-one], the IC50 against human OATP1B1 came out at 1070 nM; against human KHK-C, 7.4 nM; against human KHK-A it was 46.7 nM. Further, the EC50 turned out to be 76.8 nM with HepG2 cells (setting [3]), 49.2 nM with HepG2 cells (setting [4]) and 108 nM in data set [1].

On to `C[C@H]1[C@H](F)CN1c1nc(-c2ccc(C3(N)CS(=N)(=O)C3)cc2)c2c(n1)C(F)(F)CC2` (stereo partly shown) [Example 796], for which the IC50 against human KHK-C (ADP-Glo) amounted to 1.8 nM. For the same compound, the “1st pKa” value in data set [2] is given as 4.8.
